Assay results reported in patent US6953832B2, “Dental materials based on polyfunctional amides” (Ivoclar Vivadent AG, priority 2001, dated 2005).

Assay: Hydrolysis stability of monomer in water/ethanol/phosphoric acid (1H-NMR)
Type: physicochemical
From the text: A major advantage of the amides according to the invention is to be seen in their hydrolysis stability. Aqueous solutions of the amides are thus also storage-stable in the presence of acidic compounds. As a linking of the monomer components via covalent C—C single bonds takes place on polymerization, this also applies to the corresponding polymers.

In the case of Glycerine dimethacrylate, the Hydrolysis stability (20 wt.-% solution in 1:1:1 water, ethanol and 10% phosphoric acid, 37° C., 4 weeks, 1H-NMR) was “−” and the “Hydrolysis stability in the presence of acid (in words)” value (aqueous solution, in the presence of phosphoric acid / acidic compounds) was “completely split to form glycerine and methacrylic acid”.
